One data set deals with granulocytes. Put plainly: Inhibition of ABA-induced chemotaxis (granulocyte migration, ChemoTx). The class given is cell-based, human.
A further data set relates to human granulocytes. The data set is described as follows: Cytotoxicity, CellTiter 96 AQueous One Solution assay. Format: cell-based. The conditions noted are these: 24 hrs.
The nature of data set [1]: Stability without extraction in H2O and HBSS (HPLC-MS). Format: physicochemical. The conditions noted are these: 10 µM, 37 °C. On the procedure: Additionally, stability tests were carried out in water, in HBSS and in HBSS in the presence of human granulocytes at time 0, and after 1 and 2 hrs at 37 °C, and carrying out HPLC-MSS analysis without extracting the analyte of interest.
In order to test the compound prepared according to example 1 for stability in HBSS in the presence, or absence, of granulocytes, 1 x 10^8 cells were used in 2 ml of HBSS (with calcium and magnesium added) containing 10 µM of compound prepared according to example 1 at 37°C. Samples of 500 µl each were drawn at time 0, and after 1 and 2 hrs and the cells were separated by centrifugation at 200xg for 5 minutes; the supernatant was then recovered and directly analysed in HPLC-MS.
The HPLC-MS system used consists of an Agilent 1100 capillary chromatograph equipped with a diode array detector (DAD) and coupled with an Agilent 1100 series LC/MSD Trap mass spectometer with orthogonal electrospray source and a ionic-trap analyser.
The detection wavelength was 254 nm and the MS spectrum was recorded in negative ions mode in an m/z range of 50-300.
The amount of compound of example 1 in the extracts and supernatants was computed as the area of the peak under the extracted ion current m/z 279.3, normalized for the ionization efficiency of internal standard (hexadeuterated ABA) used for HPLC-MS analysis. Furthermore, the concentration was computed using the recovery rates obtained from the evaluation of counts per minute (cpm) of extracted [^3H]ABA.

For data set [2], the system named is 1321 N1 (human astrocytoma). The data set is described as follows: Cytotoxicity, CellTiter 96 AQueous One Solution assay. The class given is cell-based. As to conditions: 24 hrs.
Data set [3] relates to Human pancreatic beta cells. Put plainly: Insulin release (secretion index) by human pancreatic beta cells. Format: cell-based. On the procedure:
Human pancreatic beta cells were incubated in 5 […], or 25 mM glucose (HG), in the absence or in the presence of 100 nM ABA or of compound according to example 1 ([…]). Insulin release is expressed as the secretion index (SI) relative to insulin release in LG..
As in the preceding example, for the experimental procedere, reference may be made to the there cited paper, except for the specific use of compound according to example 1. TABLE 13. Effect of ABA and of compound prepared according to example 1 on insulin release (SI) by human pacreatic beta cells at 30 minutes and 120 minutes.

For data set [4], the system named is human monocytes. Put plainly: Inhibition of ABA-induced MCP-1 production in monocytes (ELISA). Format: cell-based. The conditions noted are these: 6 h. The method, then: Monocytes, 25 x 10^6/Petri in complete RPMI, were incubated for 6 h with 100 nM ABA either alone, or in the presence of compound prepared according to example 1, at a concentration of 1 µM. At the end of the incubation, the substrate was centrifuged at 17,000xg for 5 minutes and the release of MCP-1 (monocyte chemotactic protein-1) was quantitated by means of kit MC=-1 Elisa kit (GE Healthcare), in accordance with the instructions supplied by the manufacturer.
The cells were lysed in 200 µl of deionized water in order to quantitate total proteins by the Bradford method, after thre preliminary generation of a reference standard curve, obtained with different concentrations of bovine serum albumin. The spectrophotometric measurements were carried out at wavelength of 595 nm.
(§1) The experiment was carried out three times in sextuplicate.
The results were expressed as the average of the results from three independent experiments, as referred to control value. […] TABLE 8. Inhibition of MCP-1 production in human monocytes by compound prepared according to example 1
In general terms: An ELISA detects its analyte on a solid surface through an enzyme-linked reagent.

In data set [5] the test system is human monocytes. The data set is described as follows: Inhibition of ABA-induced PGE2 production in monocytes (EIA). Format: cell-based. The conditions noted are these: 6 h. The method, then:
Monocytes, 25 x 10^6/Petri in complete RPMI, were incubated for 6 h with 100 nM ABA either alone, or in the presence of compound prepared according to example 1, at a concentration of 1 µM. At the end of the incubation, the substrate was centrifuged at 17,000xg for 5 minutes and the concentration of PGE2 was quantitated by using the kit: PGE2 monoclonal EIA kit (Cayman Chemical Co.), following the instructions suppled by the manufacturer.
The cells were lysed in 200 µl of deionized water in order to quantitate total proteins by the Bradford method (Bradford, M. M., 1976), after thre preliminary generation of a reference standard curve, obtained with different concentrations of bovine serum albumin. The spectrophotometric measurements were carried out at wavelength of 595 nm.
as §1
The results were expressed as the average of the results from three independent experiments, as referred to control value. […] TABLE 7. Inhibition of PGE2 production, in human monocytes stimulated with ABA, by compound prepared according to example 1

[6] abbreviates: LG, substance 100 nM, at 30 minutes.
Where [7] appears, read: LG, substance 100 nM, at 120 minutes.
Setting [8] is: Homo sapiens, Monocyte, ABA 100 nM + compound 1 µM.

In general, inhibition refers to how much of the control response was suppressed. Turning to `CC(=C/C(=O)O)/C=C/C1(O)C(C)(C)CC(=O)C2OC21C` (stereo not drawn) [Example 1, 2'α,3'α-dihydro-2'α,3'α-epoxyabscisic acid], the “CI±SD (chemotactic index)” value in the data set with granulocytes (ABA 1 µM + compound 10 nM) worked out at 1.26±0.07. In the data set on granulocytes (Homo sapiens, migration towards ABA 1 µM, compound 10 nM), the inhibition at 0.01 µM was found to be 57%. Besides, the number of cells in the data set on human granulocytes (1 nM) is on record as 151138; in the data set on human granulocytes (10 nM) it was 191138; with human granulocytes (1 µM) it was 132555; in the data set on human granulocytes (100 µM), 175388; in data set [2] (1 nM), 16199; in data set [2] (10 nM) it was 18785. For the same compound, the number of cells in data set [2] (1 µM) came to 19446; in data set [2] (100 µM), 22252. Moreover, the vitality % is 89% with human granulocytes (1 nM); 100% in the data set on human granulocytes (10 nM); 83% with human granulocytes (1 µM); 96% in the data set on human granulocytes (100 µM); 89% in data set [2] (1 nM); 102% in data set [2] (10 nM). Also, the vitality % in data set [2] (1 µM) was 106%; in data set [2] (100 µM) it was 120%. For the same compound, the “Stability (without extraction)” value in data set [1] (H2O, 0 hr) is given as 100%; in data set [1] (H2O, 1 h) it was 100%; in data set [1] (H2O, 2 hrs), 98%; in data set [1] (HBSS, 0 hr), 100%; in data set [1] (HBSS, 1 h) it was 100%; in data set [1] (HBSS, 2 hrs) it was 89%. Moreover, the “SI (insulin secretion index relative to LG)” value in data set [3] (HG, ABA (100 nM) + compound (100 nM) together, time not printed in the row) is 3,8; in data set [3] (LG, ABA (100 nM) + compound (100 nM) together, time not printed in the row), 0,72; in data set [3] (setting [6]) it was 1,8; in data set [3] (setting [7]), 2,2. For the same compound, the “MCP-1 relatively to control ± SD” value in the data set with human monocytes [4] (ABA 100 nM + compound 1 µM) was 0.8±0.2. Besides, the inhibition at 1 µM with human monocytes [4] (setting [8]) and with human monocytes [5] (setting [8]) was 100% each time. Moreover, the “Relative amount of PGE2 as referred to control ± SD” value in the data set on human monocytes [5] (ABA 100 nM + compound 1 µM) is given as 1,0±0,1.

On to `CC1=CC(=O)CC(C)(C)C1(O)/C=C/C(C)=C\C(=O)O` (racemic) [ABA, (2Z,4E)-5-(1-hydroxy-2,6,6-trimethyl-4-oxo-2-cyclohexen-1-yl)-3-methyl-2,4-pentadienoic acid, reference compound], for which the “SI (insulin secretion index relative to LG)” value in data set [3] (setting [6]) is reported as 0,91; in data set [3] (setting [7]), 1,8. For the same compound, in the data set with human monocytes [4] (ABA 100 nM alone), the “MCP-1 relatively to control ± SD” value came out at 2±0.2. For the same compound, the “Relative amount of PGE2 as referred to control ± SD” value with human monocytes [5] (ABA 100 nM alone) is on record as 2,2±0,2.

The record behind these values is patent EP2511272B1, “Synthetic analogues of abscisic acid with anti-inflammatory and insulin release stimulation effects on human cells” (Universita' degli Studi di Genova, priority 2011, dated 2012).
